In patent publication US9440913B2, “Dihydroxybenzene derivatives and antiprotozoal agent comprising same as active ingredient” (NAI INC., priority 2010, dated 2016):

Columns and labels:
[1] = system: glycerol-3-phosphate-dependent respiration; settings: mitochondrial specimen of T. brucei brucei multiplied in the rat bloodstream; cited from earlier work
T. b. rhodesiense = assay: Treatment of mice infected with T. b. rhodesiense (cure and survival); format: in vivo; settings: for Cured/Infected: i.p., five doses at 6 hour interval
Experimental: Mice were infected with T. b. rhodesiense, a protozoan that causes acute symptoms at 1×10^3 cells/mouse, administration of medication in mice was started 24 hours after the infection, and the mice received five doses of each drug at the dosing interval of 6 hours. Mice were all infected and treated intraperitoneally (i.p). Mice that have no Trypanosomatid protozoan in the blood and survive even 60 days or more after the end of treatment were determined to be cured. Survival days represents an average survival time after treatment in mice that died from infection; therefore, survival days for the group of cured mice are not described in Table 2.

With `CO/C(=C/C(N)=O)[C@H](C)[C@H](/C=C/c1csc(-c2csc([C@@H](C)/C=C/C=C/C(C)C)n2)n1)OC` [myxothiazol] as the compound, how does the “absolute amounts of 50% inhibition” value [1] read?
Its value is 21,500 pmol/mg protein.

Which “absolute amounts of 50% inhibition” value [1] does the source give for `C/C=C(C)/C=C/C=C/[C@H](OC)[C@@H](C)[C@@H](OC)[C@@H](C)CCc1oc2c(O)c(OC)cc(OC)c2c(=O)c1C` [stigmatellin] here?
The value was 18,600 pmol/mg protein.

With `C/C(=C\Cc1c(O)c(Cl)c(C)c(C=O)c1O)CC/C=C(\C)[C@@H]1CC(=O)C(C)(C)O1` (racemic) [Ascofuranone, dl-5-Chloro-2,4-dihydroxy-6-methyl-3-[(2E,6E)-3-methyl-7-(3,3-dimethyl-4-oxo-2-oxacyclopentyl)-2,6-octadienyl]benzaldehyde] as the compound, how does the “absolute amounts of 50% inhibition” value [1] read?
The value was 25 pmol/mg protein.

And the Survival days (T. b. rhodesiense; Glycerol dose 0, average survival time after treatment in mice that died from infection)?
Its Survival days is 12 days.

And the Cured/Infected (T. b. rhodesiense; Glycerol dose 0, start 24 hours after infection, cured = no protozoan in blood and survival 60 days or more)?
The Cured/Infected was 0/5.

And the Survival days (T. b. rhodesiense; Glycerol dose 50 mg/kg, average survival time of mice that died from infection)?
Its Survival days is 12 days.

What about the Cured/Infected (T. b. rhodesiense; Glycerol dose 50 mg/kg) of the same compound?
Its Cured/Infected is 0/5.

And the Survival days (T. b. rhodesiense; Glycerol dose 750 mg/kg, average survival time of mice that died from infection)?
The Survival days was 21 days.

And the Cured/Infected (T. b. rhodesiense; Glycerol dose 750 mg/kg)?
Its Cured/Infected is 2/3.

And the Cured/Infected (T. b. rhodesiense; Glycerol dose 1.25 g/kg)?
The Cured/Infected was 5/5.

Which “absolute amounts of 50% inhibition” value [1] does the source give for `CCCC[C@H]1C(=O)O[C@H](C)[C@H](NC(=O)c2cccc(NC=O)c2O)C(=O)O[C@@H](C)[C@@H]1OC(=O)CC(C)C` [Antimycin A3] here?
Its value is 48,600 pmol/mg protein.
